# Source: patent US8242109B2, “Compositions and methods relating to novel compounds and targets thereof” (priority 2007, dated 2012)
# Read-outs that look alike come from different tables or passages of the source.
# Tests used:
# Ramos cells = assay: Cytotoxicity in Ramos cells; assay type: cell-based; conditions: Homo sapiens, read-out: Ramos Cell EC50
# Experimental: (§1) The compounds listed in Table 4 were tested for activity against F1F0-ATPase and cytotoxicity in Ramos cells. Inhibition of ATP synthesis and hydrolysis by the F1F0-ATPase was measured as described in K. M. Johnson et al., Chemistry & Biology 2005, 12, 485-496. Cytotoxicity in Ramos cells was measured as described in K. M. Johnson et al., Chemistry & Biology 2005, 12, 485-496, or using the alamarBlue™ Assay with fluorescence detection (U.S. Pat. No. 5,501,959) as supplied and described by Invitrogen (Carlsbad, Calif.).
# F1F0-ATPase = target: T1, F1F0-ATPase (Bos taurus, UniProt P13621); assay: Inhibition of ATP synthesis and hydrolysis by the F1F0-ATPase; assay type: biochemical
# T1 construct: from tissue; host or cells: bovine sub-mitochondrial particles (SMPs)
# Experimental: as §1
SMILES,EC50 (Ramos cells; cytotoxicity in Ramos cells) [µM],IC50 (F1F0-ATPase) [µM],EC50 (Ramos cells; Ramos) [µM]
"CC(C)c1ccc(CC2N=C(c3ccc(O)cc3)c3cc(Cl)ccc3N(C)C2=O)cc1 (centres unmarked) [Compound 31, (Z)-7-chloro-5-(4-hydroxyphenyl)-3-(4-isopropylbenzyl)-1-methyl-1H-benzo[e][1,4]diazepin-2(3H)-one]",5 to 10,5 to 10,–
"CN1C(=O)C(Cc2ccccc2C(F)(F)F)N=C(c2ccc(O)cc2)c2cc(Cl)ccc21 (centres unmarked) [Compound 32, (Z)-7-chloro-5-(4-hydroxyphenyl)-1-methyl-3-(2-(trifluoromethyl)benzyl)-1H-benzo[e][1,4]diazepin-2(3H)-one]",5 to 10,5 to 10,–
"O=C1Nc2ccc(Cl)cc2C(c2ccc(O)cc2)=NC1Cc1ccccc1Br (centres unmarked) [Compound 33, (Z)-3-(2-bromobenzyl)-7-chloro-5-(4-hydroxyphenyl)-1H-benzo[e][1,4]diazepin-2(3H)-one]",–,5 to 10,< 5
"CN1C(=O)C(Cc2ccccc2Cl)N=C(c2ccc(O)cc2)c2cc(Cl)ccc21 (centres unmarked) [Compound 34, (Z)-7-chloro-3-(2-chlorobenzyl)-5-(4-hydroxyphenyl)-1-methyl-1H-benzo[e][1,4]diazepin-2(3H)-one]",5 to 10,< 5,–
"CN1C(=O)C(Cc2ccc(C(F)(F)F)cc2)N=C(c2ccc(O)cc2)c2cc(Cl)ccc21 (centres unmarked) [Compound 36, (Z)-7-chloro-5-(4-hydroxyphenyl)-1-methyl-3-(4-(trifluoromethyl)benzyl)-1H-benzo[e][1,4]diazepin-2(3H)-one]",5 to 10,< 5,–
"CN1C(=O)C(Cc2cccc(Br)c2)N=C(c2ccc(O)cc2)c2cc(Cl)ccc21 (centres unmarked) [Compound 37, (Z)-3-(3-bromobenzyl)-7-chloro-5-(4-hydroxyphenyl)-1-methyl-1H-benzo[e][1,4]diazepin-2(3H)-one]",5 to 10,< 5,–
"CN1C(=O)C(Cc2ccc(Br)cc2)N=C(c2ccc(O)cc2)c2cc(Cl)ccc21 (centres unmarked) [Compound 38, (Z)-3-(4-bromobenzyl)-7-chloro-5-(4-hydroxyphenyl)-1-methyl-1H-benzo[e][1,4]diazepin-2(3H)-one]",5 to 10,< 5,–
"CN1C(=O)C(Cc2cccc(Cl)c2)N=C(c2ccc(O)cc2)c2cc(Cl)ccc21 (centres unmarked) [Compound 39, (Z)-7-chloro-3-(3-chlorobenzyl)-5-(4-hydroxyphenyl)-1-methyl-1H-benzo[e][1,4]diazepin-2(3H)-one]",> 10,> 10,–
"O=C1Nc2ccc(Cl)cc2C(c2ccc(O)cc2)=NC1Cc1ccccc1Cl (centres unmarked) [Compound 40, (Z)-7-chloro-3-(2-chlorobenzyl)-5-(4-hydroxyphenyl)-1H-benzo[e][1,4]diazepin-2(3H)-onc]",–,< 5,5 to 10
"O=C1Nc2ccc(Cl)cc2C(c2ccc3[nH]c(=O)[nH]c3c2)=NC1Cc1ccccc1Cl (centres unmarked) [Compound 41, (Z)-7-chloro-3-(2-chlorobenzyl)-5-(2-oxo-2,3-dihydro-1H-benzo[d]imidazol-5-yl)-1H-benzo[e][1,4]diazepin-2(3H)-one]",< 5,< 5,–
